For the test, the target named is Substance-P receptor (Homo sapiens, UniProt P25103). The test is described as follows: Binding affinity for human NK1 receptor expressed in CHO cells. The format is cell-based.

These results are taken from ChEMBL document CHEMBL1128019, “Gem-disubstituted amino-ether based substance p antagonists” (Bioorg Med Chem Lett, 1994).

One may read the IC50 as the concentration at which inhibition is half-maximal.

Chain of Substance-P receptor (P25103 whole entry): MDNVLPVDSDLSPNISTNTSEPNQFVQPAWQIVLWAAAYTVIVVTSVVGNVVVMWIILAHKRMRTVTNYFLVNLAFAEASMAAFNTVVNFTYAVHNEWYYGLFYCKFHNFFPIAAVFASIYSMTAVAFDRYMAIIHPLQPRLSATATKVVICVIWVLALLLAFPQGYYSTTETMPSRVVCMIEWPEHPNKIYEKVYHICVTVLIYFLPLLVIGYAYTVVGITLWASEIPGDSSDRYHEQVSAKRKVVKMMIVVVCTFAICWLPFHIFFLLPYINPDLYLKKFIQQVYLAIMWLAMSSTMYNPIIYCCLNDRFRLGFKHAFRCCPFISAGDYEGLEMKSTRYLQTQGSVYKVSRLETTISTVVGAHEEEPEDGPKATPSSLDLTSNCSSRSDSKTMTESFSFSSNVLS

Regarding `FC(F)(F)c1cc(COC[C@]2(c3ccccc3)CCCN2)cc(C(F)(F)F)c1`, the IC50 was 20 nM.
In the case of `FC(F)(F)c1cc(COC[C@]2(c3ccccc3)CCCCN2)cc(C(F)(F)F)c1`, the IC50 is 1 nM.
